According to ChEMBL document CHEMBL4390682, “Purification, structural elucidation, antioxidant capacity and neuroprotective potential of the main polyphenolic compounds contained in Achyrocline satureioides (Lam) D.C. (Compositae)” (Bioorg Med Chem, 2019):
The source made the active and inactive calls. No cut-off for these calls is given here.

Columns and labels:
[1] = Antioxidant activity in pH 7.4 PBS assessed as ABTS+ radical scavenger activity incubated under absence of light for 16 hrs; type: functional
[2] = Antioxidant activity in pH 7.4 PBS assessed as H2O2 oxidation at 50 uM incubated for 10 mins in presence of HRP and H2O2 by UV spectroscopy and HPLC analysis relative to control; type: functional
Rattus norvegicus = species on record: Rattus norvegicus; assay: Neuroprotective activity in Sprague-Dawley rat CGN cells assessed as protection against H2O2-induced cytotoxicity by measuring increase in cell viability at 5 to 100 uM pre-incubated for 24 hrs before H2O2 stimulation for 24 hrs by MTT assay; type: functional
[3] = Antioxidant activity in pH 7.4 PBS assessed as reactivity against GSH at 50 uM incubated for 10 mins in presence of HRP and H2O2 in presence of 40 uM GSH by HPLC-DAD and HPLC-MS/MS analysis relative to control; type: functional
Brain = assay: Antioxidant activity in Sprague-Dawley rat brain homogenates assessed as inhibition of lipoperoxidation incubated for 40 mins by fluorescence based assay; type: functional, tissue-based
[4] = GSH reactivity in pH 7.4 PBS assessed as hydroxylated quercetin formation at 50 uM incubated for 10 mins in presence of HRP and H2O2 in presence of 40 uM GSH by HPLC-DAD and HPLC-MS/MS analysis relative to control; type: physicochemical; details: buffer, pH 7.4, 10 min
[5] = GSH reactivity in pH 7.4 PBS assessed as GSH-adduct formation at 50 uM incubated for 10 mins in presence of HRP and H2O2 in presence of 40 uM GSH by HPLC-DAD and HPLC-MS/MS analysis relative to control; type: physicochemical; details: buffer, pH 7.4, 10 min

Row | SMILES | EC50 [1] [µM] | Activity [2] [%] | Activity (Rattus norvegicus) | Activity [3] | EC50 (Brain) [µM] | Activity [4] | Activity [5]
1 | COc1c(-c2ccc(O)c(O)c2)oc2cc(O)cc(O)c2c1=O [3-O-METHYLQUERCETIN] | 45 | 0 | inactive | Active | 74 |  | 
2 | O=c1c(O[C@@H]2O[C@H](CO)[C@@H](O)[C@H](O)[C@H]2O)c(-c2ccc(O)c(O)c2)oc2cc(O)cc(O)c12 [ISOQUERCETIN] | 152 | 15 | Active | Active | 94 |  | 
3 | O=c1cc(-c2ccc(O)c(O)c2)oc2cc(O)cc(O)c12 [LUTEOLIN] | 46 | 25 | Active | Active | 79 |  | 
4 | O=c1c(O)c(-c2ccc(O)c(O)c2)oc2cc(O)cc(O)c12 [QUERCETIN] | 9.6 | 90 | Active | Active | 5.7 | Active | Active
